Patent publication US4471131A, “Novel silyl esters of N-phosphonomethylglycine” (Monsanto Company, priority 1983, dated 1984)

What was measured:
Assay in all cases: post-emergence herbicidal activity, greenhouse
Format in all cases: in vivo
Wild Buckwheat = conditions: Table III
Method in brief: (§1)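 Greenhouse-grown seedlings in soil pans; post-emergence atomizer spray at 2–3 weeks; injury against controls observed twice, near weeks 2 and 4.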

Large Crabgrass = conditions: Table III
Method in brief: as §1

Common Lambsquarters = test system: Common Lambsquarters
Method in brief: as §1

Soybean = conditions: Table III
Method in brief: as §1

Velvetleaf = test system: Velvetleaf
Method in brief: as §1

Pennsylvania Smartweed = test system: Pennsylvania Smartweed
Method in brief: as §1

Barnyardgrass = test system: Barnyardgrass
Method in brief: as §1

[1] = 2 WAT, 1.1 kg/h, formulated in anhydrous tetrahydrofuran
[2] = 2 WAT, 5.6 kg/h, formulated in anhydrous tetrahydrofuran
[3] = 2 WAT, .28 kg/h, formulated in anhydrous tetrahydrofuran
[4] = 4 WAT, 1.1 kg/h, formulated in anhydrous tetrahydrofuran
[5] = 4 WAT, 5.6 kg/h, formulated in anhydrous tetrahydrofuran
[6] = 4 WAT, .28 kg/h, formulated in anhydrous tetrahydrofuran
[7] = Table II, 2 WAT, 5.6 kg/h, formulated in anhydrous tetrahydrofuran
[8] = Table II, 2 WAT, 11.2 kg/h, formulated in anhydrous tetrahydrofuran
[9] = Table II, 4 WAT, 5.6 kg/h, formulated in anhydrous tetrahydrofuran
[10] = Table II, 4 WAT, 11.2 kg/h, formulated in anhydrous tetrahydrofuran
[11] = Table III, 2 WAT, 1.1 kg/h, formulated in anhydrous tetrahydrofuran
[12] = Table III, 2 WAT, 5.6 kg/h, formulated in anhydrous tetrahydrofuran
[13] = Table III, 2 WAT, .28 kg/h, formulated in anhydrous tetrahydrofuran
[14] = Table III, 4 WAT, 1.1 kg/h, formulated in anhydrous tetrahydrofuran
[15] = Table III, 4 WAT, 5.6 kg/h, formulated in anhydrous tetrahydrofuran
[16] = Table III, 4 WAT, .28 kg/h, formulated in anhydrous tetrahydrofuran

CCOC(=O)CNCP(=O)(O)O[Si](c1ccccc1)(c1ccccc1)C(C)(C)C [Ex. 7, Glycine, N--((([(1,1-Dimethylethyl)Diphenylsilyl]Oxy)Hydroxyphosphinyl)Methyl)-,Ethyl Ester]
1 (25-49% inhibition): Plant Response Index (Q) (Wild Buckwheat; [3]) | Plant Response Index (Q) (Wild Buckwheat; [6]) | Plant Response Index (L) (Soybean; [1]) | Plant Response Index (L) (Soybean; [3]) | Plant Response Index (L) (Soybean; 4 WAT, 1.1 kg/h) | Plant Response Index (L) (Soybean; [4]) | Plant Response Index (L) (Soybean; 4 WAT, 5.6 kg/h) | Plant Response Index (L) (Soybean; [6]) | Plant Response Index (C) (Velvetleaf; [7]) | Plant Response Index (C) (Velvetleaf; [8]) | Plant Response Index (C) (Velvetleaf; [10]) | Plant Response Index (C) (Velvetleaf; Table III, 2 WAT, 1.1 kg/h) | Plant Response Index (C) (Velvetleaf; Table III, 2 WAT, .28 kg/h) | Plant Response Index (C) (Velvetleaf; [13]) | Plant Response Index (C) (Velvetleaf; Table III, 4 WAT, 1.1 kg/h) | Plant Response Index (C) (Velvetleaf; Table III, 4 WAT, .28 kg/h) | Plant Response Index (C) (Velvetleaf; [16]) | Plant Response Index (F) (Pennsylvania Smartweed; [7]) | Plant Response Index (F) (Pennsylvania Smartweed; [8]) | Plant Response Index (F) (Pennsylvania Smartweed; [9]) | Plant Response Index (K) (Barnyardgrass; [7]) | Plant Response Index (K) (Barnyardgrass; [13]) | Plant Response Index (K) (Barnyardgrass; [16])
3 (75-99% inhibition): Plant Response Index (Q) (Wild Buckwheat; [2]) | Plant Response Index (Q) (Wild Buckwheat; 4 WAT, 5.6 kg/h) | Plant Response Index (Q) (Wild Buckwheat; [5]) | Plant Response Index (T) (Large Crabgrass; [1]) | Plant Response Index (T) (Large Crabgrass; [2]) | Plant Response Index (T) (Large Crabgrass; [4]) | Plant Response Index (T) (Large Crabgrass; [5]) | Plant Response Index (E) (Common Lambsquarters; Table II, 2 WAT, 5.6 kg/h) | Plant Response Index (E) (Common Lambsquarters; [7]) | Plant Response Index (E) (Common Lambsquarters; Table II, 4 WAT, 5.6 kg/h) | Plant Response Index (E) (Common Lambsquarters; [9]) | Plant Response Index (E) (Common Lambsquarters; Table III, 2 WAT, 5.6 kg/h) | Plant Response Index (E) (Common Lambsquarters; Table III, 2 WAT, .28 kg/h) | Plant Response Index (E) (Common Lambsquarters; Table III, 4 WAT, 5.6 kg/h) | Plant Response Index (E) (Common Lambsquarters; Table III, 4 WAT, .28 kg/h) | Plant Response Index (E) (Common Lambsquarters; [16]) | Plant Response Index (C) (Velvetleaf; Table II, 2 WAT, 11.2 kg/h) | Plant Response Index (C) (Velvetleaf; Table II, 4 WAT, 5.6 kg/h) | Plant Response Index (C) (Velvetleaf; Table II, 4 WAT, 11.2 kg/h) | Plant Response Index (C) (Velvetleaf; [15]) | Plant Response Index (F) (Pennsylvania Smartweed; Table III, 2 WAT, 1.1 kg/h) | Plant Response Index (F) (Pennsylvania Smartweed; Table III, 2 WAT, .28 kg/h) | Plant Response Index (F) (Pennsylvania Smartweed; Table III, 4 WAT, 1.1 kg/h) | Plant Response Index (F) (Pennsylvania Smartweed; Table III, 4 WAT, 5.6 kg/h) | Plant Response Index (F) (Pennsylvania Smartweed; Table III, 4 WAT, .28 kg/h) | Plant Response Index (K) (Barnyardgrass; Table II, 2 WAT, 5.6 kg/h) | Plant Response Index (K) (Barnyardgrass; Table II, 2 WAT, 11.2 kg/h) | Plant Response Index (K) (Barnyardgrass; Table II, 4 WAT, 5.6 kg/h) | Plant Response Index (K) (Barnyardgrass; [10]) | Plant Response Index (K) (Barnyardgrass; Table III, 2 WAT, 1.1 kg/h) | Plant Response Index (K) (Barnyardgrass; Table III, 2 WAT, 5.6 kg/h) | Plant Response Index (K) (Barnyardgrass; [12]) | Plant Response Index (K) (Barnyardgrass; Table III, 4 WAT, 1.1 kg/h) | Plant Response Index (K) (Barnyardgrass; Table III, 4 WAT, 5.6 kg/h) | Plant Response Index (K) (Barnyardgrass; [15])
2 (50-74% inhibition): Plant Response Index (Q) (Wild Buckwheat; 2 WAT, 1.1 kg/h) | Plant Response Index (Q) (Wild Buckwheat; [1]) | Plant Response Index (Q) (Wild Buckwheat; 2 WAT, 5.6 kg/h) | Plant Response Index (Q) (Wild Buckwheat; 2 WAT, .28 kg/h) | Plant Response Index (Q) (Wild Buckwheat; 4 WAT, 1.1 kg/h) | Plant Response Index (Q) (Wild Buckwheat; [4]) | Plant Response Index (Q) (Wild Buckwheat; 4 WAT, .28 kg/h) | Plant Response Index (T) (Large Crabgrass; [3]) | Plant Response Index (T) (Large Crabgrass; [6]) | Plant Response Index (E) (Common Lambsquarters; [13]) | Plant Response Index (L) (Soybean; 2 WAT, 1.1 kg/h) | Plant Response Index (L) (Soybean; 2 WAT, 5.6 kg/h) | Plant Response Index (L) (Soybean; [2]) | Plant Response Index (L) (Soybean; [5]) | Plant Response Index (C) (Velvetleaf; Table II, 2 WAT, 5.6 kg/h) | Plant Response Index (C) (Velvetleaf; [9]) | Plant Response Index (C) (Velvetleaf; [11]) | Plant Response Index (C) (Velvetleaf; Table III, 2 WAT, 5.6 kg/h) | Plant Response Index (C) (Velvetleaf; [12]) | Plant Response Index (C) (Velvetleaf; [14]) | Plant Response Index (C) (Velvetleaf; Table III, 4 WAT, 5.6 kg/h) | Plant Response Index (F) (Pennsylvania Smartweed; Table II, 2 WAT, 5.6 kg/h) | Plant Response Index (F) (Pennsylvania Smartweed; Table II, 2 WAT, 11.2 kg/h) | Plant Response Index (F) (Pennsylvania Smartweed; Table II, 4 WAT, 11.2 kg/h) | Plant Response Index (F) (Pennsylvania Smartweed; Table III, 2 WAT, 5.6 kg/h) | Plant Response Index (F) (Pennsylvania Smartweed; [13]) | Plant Response Index (F) (Pennsylvania Smartweed; [16]) | Plant Response Index (K) (Barnyardgrass; [8]) | Plant Response Index (K) (Barnyardgrass; [9]) | Plant Response Index (K) (Barnyardgrass; [11]) | Plant Response Index (K) (Barnyardgrass; Table III, 2 WAT, .28 kg/h) | Plant Response Index (K) (Barnyardgrass; [14]) | Plant Response Index (K) (Barnyardgrass; Table III, 4 WAT, .28 kg/h)
4 (100% inhibition): Plant Response Index (T) (Large Crabgrass; 2 WAT, 1.1 kg/h) | Plant Response Index (T) (Large Crabgrass; 4 WAT, 1.1 kg/h) | Plant Response Index (E) (Common Lambsquarters; Table II, 2 WAT, 11.2 kg/h) | Plant Response Index (E) (Common Lambsquarters; [8]) | Plant Response Index (E) (Common Lambsquarters; Table II, 4 WAT, 11.2 kg/h) | Plant Response Index (E) (Common Lambsquarters; [10]) | Plant Response Index (E) (Common Lambsquarters; Table III, 2 WAT, 1.1 kg/h) | Plant Response Index (E) (Common Lambsquarters; [11]) | Plant Response Index (E) (Common Lambsquarters; [12]) | Plant Response Index (E) (Common Lambsquarters; Table III, 4 WAT, 1.1 kg/h) | Plant Response Index (E) (Common Lambsquarters; [14]) | Plant Response Index (E) (Common Lambsquarters; [15]) | Plant Response Index (F) (Pennsylvania Smartweed; Table II, 4 WAT, 5.6 kg/h) | Plant Response Index (F) (Pennsylvania Smartweed; [10]) | Plant Response Index (F) (Pennsylvania Smartweed; [11]) | Plant Response Index (F) (Pennsylvania Smartweed; [12]) | Plant Response Index (F) (Pennsylvania Smartweed; [14]) | Plant Response Index (F) (Pennsylvania Smartweed; [15]) | Plant Response Index (K) (Barnyardgrass; Table II, 4 WAT, 11.2 kg/h)
0 (0-24% inhibition): Plant Response Index (L) (Soybean; 2 WAT, .28 kg/h) | Plant Response Index (L) (Soybean; 4 WAT, .28 kg/h)
